For data set [1], the system named is Alternaria solani. Put plainly: In vivo preventive test on Alternaria solani (tomato). The conditions noted are these: 500 ppm of active ingredient, evaluated 7 days after inoculation. How it is done:
EXAMPLE A: IN VIVO PREVENTIVE TEST ON ALTERNARIA SOLANI (TOMATO) Solvent: 49 parts by weight of N,N-dimethylformamide Emulsifier: 1 part by weight of Alkylarylpolyglycolether To produce a suitable preparation of active compound, 1 part by weight of active compound is mixed with the stated amounts of solvent and emulsifier, and the concentrate is diluted with water to the desired concentration. To test for preventive activity, young plants are sprayed with the preparation of active compound at the stated rate of application. One day after this treatment, the plants are inoculated with an aqueous spore suspension of Alternaria solani. The plants remain for one day in an incubation cabinet at approximately 22° C. and a relative atmospheric humidity of 100%. Then the plants are placed in an incubation cabinet at approximately 20° C. and a relative atmospheric humidity of 96%. The test is evaluated 7 days after the inoculation. 0% means an efficacy which corresponds to that of the control while an efficacy of 100% means that no disease is observed. Under these conditions, good (at least 80%) to total protection is observed at a dose of 500 ppm of active ingredient with the following compounds from table A: […]

Data set [2] is described as follows: log P by HPLC on reversed-phase column (C 18), EEC Directive 79/831 Annex V.A8. The conditions noted are these: C 18 reversed phase, 40° C., 0.1% aqueous formic acid and acetonitrile gradient. The data set is classed as physicochemical. How it is done: In table 1, the log P values were determined in accordance with EEC Directive 79/831 Annex V.A8 by HPLC (High Performance Liquid Chromatography) on a reversed-phase column (C 18), using the method described below: Temperature: 40° C.; Mobile phases: 0.1% aqueous formic acid and acetonitrile; linear gradient from 10% acetonitrile to 90% acetonitrile. Calibration was carried out using unbranched alkan-2-ones (comprising 3 to 16 carbon atoms) with known log P values (determination of the log P values by the retention times using linear interpolation between two successive alkanones). lambda-max-values were determined using UV-spectra from 200 nm to 400 nm and the peak values of the chromatographic signals.

Data set [3] deals with Leptosphaeria nodorum. Put plainly: In vivo preventive test on Leptosphaeria nodorum (wheat). The following applies: 500 ppm of active ingredient, evaluated 8 days after inoculation. How it is done: EXAMPLE D: IN VIVO PREVENTIVE TEST ON LEPTOSPHAERIA NODORUM (WHEAT) Solvent: 49 parts by weight of N,N-dimethylacetamide Emulsifier: 1 part by weight of alkylaryl polyglycol ether To produce a suitable preparation of active compound, 1 part by weight of active compound or the compound combination is mixed with the stated amounts of solvent and emulsifier, and the concentrate is diluted with water to the desired concentration. To test for protective activity, young plants are sprayed with a preparation of active compound or active compound combination at the stated rate of application. After the spray coating has dried on, the plants are sprayed with a spore suspension of Leptosphaeria nodorum. The plants remain for 48 hours in an incubation cabinet at 20° C. and a relative atmospheric humidity of 100%. The plants are placed in a greenhouse at a temperature of approximately 22° C. and a relative atmospheric humidity of approximately 80%. The test is evaluated 8 days after the inoculation. 0% means an efficacy which corresponds to that of the control, while an efficacy of 100% means that no disease is observed. Under these conditions, good (at least 75%) to total protection is observed at a dose of 500 ppm of active ingredient with the following compounds from table D: Under the same conditions, excellent protection (greater than 94%) is observed at a dose of 500 ppm of active ingredient with compound 2, whereas poor protection (less than 30%) is observed with the isosteric analogue compound CMP1 claimed in WO-2009/016218 as in table D2.

Data set [4] relates to Pyrenophora teres. Put plainly: In vivo preventive test on Pyrenophora teres (barley). The conditions noted are these: 500 ppm of active ingredient, evaluated 7-9 days after inoculation. How it is done: EXAMPLE F: IN VIVO PREVENTIVE TEST ON PYRENOPHORA TERES (BARLEY) Solvent: 49 parts by weight of N,N-dimethylformamide Emulsifier: 1 part by weight of Alkylarylpolyglycolether To produce a suitable preparation of active compound, 1 part by weight of active compound is mixed with the stated amounts of solvent and emulsifier, and the concentrate is diluted with water to the desired concentration. To test for preventive activity, young plants are sprayed with the preparation of active compound at the stated rate of application. One day after this treatment, the plants are inoculated with an aqueous spore suspension of Pyrenophora teres. The plants remain for 48 hours in an incubation cabinet at 22° C. and a relative atmospheric humidity of 100%. Then the plants are placed in a greenhouse at a temperature of approximately 20° C. and a relative atmospheric humidity of approximately 80%. The test is evaluated 7-9 days after the inoculation. 0% means an efficacy which corresponds to that of the untreated control while an efficacy of 100% means that no disease is observed. Under these conditions, high (at least 90%) to total protection is observed at a dose of 500 ppm of active ingredient with the following compounds from table F: […]

Data set [5] deals with Sphaerotheca fuliginea. Put plainly: In vivo preventive test on Sphaerotheca fuliginea (cucumbers). The conditions noted are these: 500 ppm of active ingredient, evaluated 7 days after inoculation. How it is done:
EXAMPLE H: IN VIVO PREVENTIVE TEST ON SPHAEROTHECA FULIGINEA (CUCUMBERS) Solvent: 24.5 parts by weight of acetone • 24.5 parts by weight of N,N-dimethylacetamide Emulsifier: 1 part by weight of alkylaryl polyglycol ether To produce a suitable preparation of active compound, 1 part by weight of active compound is mixed with the stated amounts of solvent and emulsifier, and the concentrate is diluted with water to the desired concentration. To test for protect activity, young plants are sprayed with the preparation of active compound at the stated rate of application. After the spray coating has dried on, the plants are inoculated with an aqueous spore suspension of Sphaerotheca fuliginea. The plants are then placed in a greenhouse at approximately 23° C. and a relative atmospheric humidity of approximately 70%. The test is evaluated 7 days after the inoculation. 0% means an efficacy which corresponds to that of the untreated control, while an efficacy of 100% means that no disease is observed. Under these conditions, high (at least 90%) to total protection is observed at a dose of 100 ppm of active ingredient with the following compounds from table H: Under the same conditions, high protection (greater than 80%) is observed at a dose of 500 ppm of active ingredient with compound 7, whereas poor protection (less than 20%) is observed with the isosteric analogue compound CMP2 claimed in WO-2009/016218 as in table H2.

`Cn1nc(C(F)F)c(C(=O)N(C2CC2)C2Cc3ccccc3C2)c1Cl` [Example 1]: in data set [1], the Efficacy was 89%. For the same compound, the log partition coefficient (logP) (commonly the decadic logarithm of the partition coefficient of the neutral form, usually between octanol and water) in data set [2] stood at 3.35.
`Cn1nc(C(F)F)c(C(=O)N(C2CC2)C2CCc3ccccc3C2)c1F` (stereo not drawn) [Example 7]: the Efficacy is given as 100% in data set [1]; 94% in data set [3]; 100% in data set [4]; 80% in data set [5]; “greater than 80%” in data set [5] (listed as compound 7). The compound also yielded a logP in data set [2] of 3.48.
The compound `Cc1nn(C)c(F)c1C(=O)N(C1CC1)C1CCc2ccccc2C1` (stereo not drawn) [Example 4] yielded an Efficacy in data set [4] of 90%. Further, in data set [2], the logP came to 3.00.
Regarding `Cn1nc(C(F)F)c(C(=O)N(CC2Cc3ccccc3O2)C2CC2)c1Cl` (stereo not drawn) [Example 21], the logP in data set [2] is given as 3.04.
With `Cc1cc(C(=O)N(C2CC2)C(C)C2Cc3ccccc3C2)c(C)o1` (stereo not drawn) [Example 10], the Efficacy was 95% in data set [1] and 90% in data set [4]. In data set [2], this compound registered a logP of 4.34.
With `CCc1nn(C)c(F)c1C(=O)N(C1CC1)C1CCc2ccccc2C1` (stereo not drawn) [Example 5], the Efficacy in data set [1] stood at 95%; in data set [3], 78%; in data set [4], 95%. The logP in data set [2] is listed as 3.35.
On to `Cn1nc(C(F)F)c(C(=S)N(C2CC2)C2CCc3ccccc3C2)c1F` (stereo not drawn) [Example 9], for which the Efficacy was 93% in data set [1] and 100% in data set [4]. This compound showed a logP in data set [2] of 4.21.
Regarding `Cn1nc(C(F)F)c(C(=O)N(CC2Cc3ccccc3O2)C2CC2)c1F` (stereo not drawn) [Example 19], in data set [4], the Efficacy was found to be 100%. The compound also registered a logP in data set [2] of 2.86.
With `Cn1cc(C(=O)N(C2CC2)C2CCc3ccccc3C2)c(C(F)F)n1` (stereo not drawn) [Example 6], the Efficacy amounted to 95% in data set [1] and 100% in data set [4]. The same compound had a logP in data set [2] of 3.08.
For the compound `Cc1cc(C(=O)N(C2CC2)C2CCc3ccccc3C2)c(C)o1` (stereo not drawn) [Example 3], the logP in data set [2] was determined as 4.01.
Same read-out and setting: the result for `CC(C1CCc2ccccc2C1)N(C(=O)c1ccsc1I)C1CC1` (stereo not drawn) [Example 15] reads 4.82.
Take `Cn1nc(C(F)F)c(C(=O)N(C2CC2)C2Cc3ccccc3C2)c1F` [Example 2]: the Efficacy in data set [1] is 94%; in data set [3], 94%; in data set [3] (listed as compound 2) it was “greater than 94%”. In data set [2], this compound registered a logP of 3.19.
`Cn1cc(C(=O)N(CC2Cc3ccccc3O2)C2CC2)c(C(F)F)n1` (stereo not drawn) [Example 18] had an Efficacy in data set [4] of 95%. The logP in data set [2] is given as 2.54.
As to `Cn1cc(C(=S)N(C2CC2)C2CCc3ccccc3C2)c(C(F)F)n1` (stereo not drawn) [Example 8], the Efficacy in data set [4] came out at 95%. Moreover, the logP in data set [2] was found to be 3.73.
Consider `Cn1nc(C(F)F)c(C(=O)N(CC2COc3ccccc3C2)C2CC2)c1F` (stereo not drawn) [Example 20], for which the values for the Efficacy in data set [1] and in data set [4] were 80% and 100%, respectively. Moreover, the logP in data set [2] worked out at 3.00.

(Values after US10093611B2, “Benzocycloalkenes as antifungal agents” (Bayer Intellectual Property GmbH, priority 2010, dated 2018).)
